Patent publication US20250145665A1, “MACROCYCLIC PEPTIDES USEFUL AS MODULATORS OF TNF ALPHA” (Bristol-Myers Squibb Company, priority 2023, published 2025)
Starred links: 1 amine or outer side, 2 acyl side, 3 side chain; linkers in the order of their positions; H or OH if unused. Positions of bridges follow the written chain, without caps; N, C: chain ends. Non-standard residues stand in square brackets, D forms with d. Residues, ends and D or L forms follow the SMILES beside them. *: point of attachment. Bip(4'-NHCO-C6H4-4-CH2COOH) = N[C@@H](Cc1ccc(-c2ccc(NC(=O)c3ccc(CC(=O)O)cc3)cc2)cc1)C(=O)O; X79 = O=C(O)C1CCCC(C(=O)Nc2ccc(-c3ccc(C[C@H](N[*:1])C(=O)[*:2])cc3)cc2)C1; dArg(Nω-CH2C6H4-3-CH2Gua) = N=C(N)NCc1cccc(CNC(=N)NCCC[C@@H](N)C(=O)O)c1; dArg(ω-(2S)-2,3-diOHpropyl) = N=C(NCCC[C@@H](N)C(=O)O)NC[C@H](O)CO; Bip(4'-NH) = O=C([C@H](Cc1ccc(-c2ccc(N[*:3])cc2)cc1)N[*:1])[*:2]; Indazole3carbonyl(1-CH2COOH) = O=C(O)Cn1nc(C(=O)*)c2ccccc21; Bip(4'-COOH) = N[C@@H](Cc1ccc(-c2ccc(C(=O)O)cc2)cc1)C(=O)O; Bip(4'-NHAc) = CC(=O)Nc1ccc(-c2ccc(C[C@H](N)C(=O)O)cc2)cc1; Indole3carbonyl(1-CH2COOH) = O=C(O)Cn1cc(C(=O)*)c2ccccc21; Ala(morpholin-4-yl) = N[C@@H](CN1CCOCC1)C(=O)O; Benzoyl(3-OCH2COOH) = O=C(O)COc1cccc(C(=O)*)c1; Bip = N[C@@H](Cc1ccc(-c2ccccc2)cc1)C(=O)O; Tiq1c(1S) = O=C(O)[C@H]1NCCc2ccccc21; X31 = Cn1c(C(=O)*)cc2cccc(Cl)c21; 2Pal = N[C@@H](Cc1ccccn1)C(=O)O; 3Pal = N[C@@H](Cc1cccnc1)C(=O)O; 2Thi = N[C@@H](Cc1cccs1)C(=O)O; Cha = N[C@@H](CC1CCCCC1)C(=O)O; Sar = CNCC(=O)O

Target: TNFα (Homo sapiens, UniProt P01375)
Assay: TNF-Induced HEK-Blue Assay
Type: cell-based
Settings: not given

Sequence of TNFα (P01375 77-233 limits assumed): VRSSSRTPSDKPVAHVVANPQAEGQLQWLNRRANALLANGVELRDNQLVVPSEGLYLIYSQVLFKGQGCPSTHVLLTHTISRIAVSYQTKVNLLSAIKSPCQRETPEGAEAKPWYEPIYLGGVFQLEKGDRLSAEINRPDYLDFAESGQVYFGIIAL

Compound | IC50
CC(C)C[C@@H]1NC(=O)[C@H](CCCNC(=N)N)NC(=O)[C@H](C(C)C)NC(=O)[C@@H]2CCCN2C(=O)[C@H](C(C)C)NC(=O)[C@@H](CCCNC(=N)NC[C@H](O)CO)NC(=O)[C@H](CC(=O)O)NC(=O)[C@@H]2CCCN2C(=O)CN(C)C(=O)[C@H](Cc2ccc(-c3ccc(NC(=O)c4cn(CC(=O)O)c5ccccc45)cc3)cc2)NC(=O)[C@H](Cc2ccc(-c3ccccc3)cc2)NC(=O)[C@H](CN2CCOCC2)NC(=O)CSC[C@@H](C(=O)NCC(N)=O)NC1=O [Example 540] ({CH2CO}-[Ala(morpholin-4-yl)][Bip][Bip(4'-NH)](Indole3carbonyl(1-CH2COOH))[Sar]PD[dArg(ω-(2S)-2,3-diOHpropyl)]VPVRLCG-NH2; thioether N-13) | < 50 nM
CC[C@H](C)[C@@H]1NC(=O)[C@@H](CCCNC(=N)N)NC(=O)[C@H](CC(=O)O)NC(=O)[C@H](Cc2cnc[nH]2)NC(=O)CN(C)C(=O)[C@H](Cc2ccc(-c3ccc(NC(=O)c4cccc(OCC(=O)O)c4)cc3)cc2)NC(=O)[C@H](Cc2ccc(-c3ccc(C(=O)O)cc3)cc2)NC(=O)[C@H](CC2CCCCC2)NC(=O)CSC[C@@H](C(=O)NCC(N)=O)NC(=O)[C@H](CC(C)C)NC(=O)[C@H](Cc2cnc[nH]2)NC(=O)[C@H](C(C)C)NC(=O)[C@@H]2c3ccccc3CCN2C1=O [Example 375] ({CH2CO}-[Cha][Bip(4'-COOH)][Bip(4'-NH)](Benzoyl(3-OCH2COOH))[Sar]HD[dR]I[Tiq1c(1S)]VHLCG-NH2; thioether N-13) | < 50 nM
CC(C)C[C@@H]1NC(=O)[C@H](Cc2cccs2)NC(=O)[C@H](C(C)C)NC(=O)[C@@H]2CCCN2C(=O)[C@H](C(C)C)NC(=O)[C@@H](CCCNC(=N)NC[C@H](O)CO)NC(=O)[C@H](CC(=O)O)NC(=O)[C@H](Cc2ccccn2)NC(=O)CN(C)C(=O)[C@H](Cc2ccc(-c3ccc(NC(=O)c4nn(CC(=O)O)c5ccccc45)cc3)cc2)NC(=O)[C@H](Cc2ccc(-c3ccccc3)cc2)NC(=O)[C@H](CN2CCOCC2)NC(=O)CSC[C@@H](C(=O)NCC(N)=O)NC1=O [Example 639] ({CH2CO}-[Ala(morpholin-4-yl)][Bip][Bip(4'-NH)](Indazole3carbonyl(1-CH2COOH))[Sar][2Pal]D[dArg(ω-(2S)-2,3-diOHpropyl)]VPV[2Thi]LCG-NH2; thioether N-13) | < 50 nM
CC(C)C[C@@H]1NC(=O)[C@H](Cc2cnc[nH]2)NC(=O)[C@H](C(C)C)NC(=O)[C@@H]2CCCN2C(=O)[C@H](C(C)C)NC(=O)[C@@H](CCCNC(=N)NCc2cccc(CNC(=N)N)c2)NC(=O)[C@H](CC(=O)O)NC(=O)[C@H](Cc2ccccn2)NC(=O)CN(C)C(=O)[C@H](Cc2ccc(-c3ccc(NC(=O)c4nn(CC(=O)O)c5ccccc45)cc3)cc2)NC(=O)[C@H](Cc2ccc(-c3ccccc3)cc2)NC(=O)[C@H](CN2CCOCC2)NC(=O)CSC[C@@H](C(=O)NCC(N)=O)NC1=O [Example 621] ({CH2CO}-[Ala(morpholin-4-yl)][Bip][Bip(4'-NH)](Indazole3carbonyl(1-CH2COOH))[Sar][2Pal]D[dArg(Nω-CH2C6H4-3-CH2Gua)]VPVHLCG-NH2; thioether N-13) | < 50 nM

Same assay, conditions: HEK-Blue-CD40L cells, NF-kB-driven secreted alkaline phosphatase reporter; TNFα 0.5 ng/ml; 18 h; read-out: TNF induced HEK-Blue assay IC50 value

Compound | IC50
CC(C)C[C@@H]1NC(=O)[C@H](CCCNC(=N)N)NC(=O)[C@H](C(C)C)NC(=O)[C@@H]2CCCN2C(=O)[C@H](C(C)C)NC(=O)[C@H](CCCNC(=N)N)NC(=O)[C@H](CC(=O)O)NC(=O)[C@@H]2CCCN2C(=O)CN(C)C(=O)[C@H](Cc2ccc(-c3ccccc3)cc2)NC(=O)[C@H](Cc2ccc(-c3ccccc3)cc2)NC(=O)[C@H](Cc2cccnc2)NC(=O)CSC[C@@H](C(=O)NCC(N)=O)NC1=O [Example 29] ({CH2CO}-[3Pal][Bip][Bip][Sar]PDRVPVRLCG-NH2; thioether N-13) | 200 to 2000 nM
CC(=O)Nc1ccc(-c2ccc(C[C@@H]3NC(=O)[C@H](Cc4ccc(-c5ccccc5)cc4)NC(=O)[C@H](CN4CCOCC4)NC(=O)CSC[C@@H](C(=O)NCC(N)=O)NC(=O)[C@H](CC(C)C)NC(=O)[C@H](CCCNC(=N)N)NC(=O)[C@H](C(C)C)NC(=O)[C@@H]4CCCN4C(=O)[C@H](Cc4ccc(O)cc4)NC(=O)[C@H](CCCNC(=N)N)NC(=O)[C@H](CC(=O)O)NC(=O)[C@@H]4CCCN4C(=O)CN(C)C3=O)cc2)cc1 [Example 127] ({CH2CO}-[Ala(morpholin-4-yl)][Bip][Bip(4'-NHAc)][Sar]PDRYPVRLCG-NH2; thioether N-13) | 50 to 200 nM
CC(C)C[C@@H]1NC(=O)[C@H](CCCNC(=N)N)NC(=O)[C@H](C(C)C)NC(=O)[C@@H]2CCCN2C(=O)[C@H](C(C)C)NC(=O)[C@@H](CCCNC(=N)N)NC(=O)[C@H](CC(=O)O)NC(=O)[C@H](Cc2ccc(O)cc2)NC(=O)CN(C)C(=O)[C@H](Cc2ccc(-c3ccccc3)cc2)NC(=O)[C@H](Cc2ccc(-c3ccccc3)cc2)NC(=O)[C@H](CN2CCOCC2)NC(=O)CSC[C@@H](C(=O)NCC(N)=O)NC1=O [Example 76] ({CH2CO}-[Ala(morpholin-4-yl)][Bip][Bip][Sar]YD[dR]VPVRLCG-NH2; thioether N-13) | < 50 nM

Other lines, results leading:

IC50 | Compound
50 to 200 nM | CC[C@H](C)[C@@H]1NC(=O)[C@@H](CCCNC(=N)N)NC(=O)[C@H](CC(=O)O)NC(=O)[C@H](Cc2cnc[nH]2)NC(=O)CN(C)C(=O)[C@H](Cc2ccc(-c3ccc(NC(=O)c4cc5cccc(Cl)c5n4C)cc3)cc2)NC(=O)[C@H](Cc2ccc(-c3ccccc3)cc2)NC(=O)[C@H](CC2CCCCC2)NC(=O)CSC[C@@H](C(=O)NCC(N)=O)NC(=O)[C@H](CC(C)C)NC(=O)[C@H](Cc2cnc[nH]2)NC(=O)[C@H](C(C)C)NC(=O)[C@@H]2CCCN2C1=O [Example 326] ({CH2CO}-[Cha][Bip][Bip(4'-NH)](X31)[Sar]HD[dR]IPVHLCG-NH2; thioether N-13)
50 to 200 nM | CC(C)C[C@@H]1NC(=O)[C@H](Cc2cccs2)NC(=O)[C@H](C(C)C)NC(=O)[C@@H]2CCCN2C(=O)[C@H](C(C)C)NC(=O)[C@@H](CCCNC(=N)N)NC(=O)[C@H](CC(=O)O)NC(=O)[C@H](Cc2ccccn2)NC(=O)CN(C)C(=O)[C@H](Cc2ccc(-c3ccc(NC(=O)c4ccc(CC(=O)O)cc4)cc3)cc2)NC(=O)[C@H](Cc2ccc(-c3ccc(C(=O)O)cc3)cc2)NC(=O)[C@H](CC2CCCCC2)NC(=O)CSC[C@@H](C(=O)NCC(N)=O)NC1=O [Example 612] ({CH2CO}-[Cha][Bip(4'-COOH)][Bip(4'-NHCO-C6H4-4-CH2COOH)][Sar][2Pal]D[dR]VPV[2Thi]LCG-NH2; thioether N-13)
50 to 200 nM | CC[C@H](C)[C@@H]1NC(=O)[C@@H](CCCNC(=N)N)NC(=O)[C@H](CC(=O)O)NC(=O)[C@H](Cc2cnc[nH]2)NC(=O)CN(C)C(=O)[C@H](Cc2ccc(-c3ccc(NC(=O)C4CCCC(C(=O)O)C4)cc3)cc2)NC(=O)[C@H](Cc2ccc(-c3ccccc3)cc2)NC(=O)[C@H](CC2CCCCC2)NC(=O)CSC[C@@H](C(=O)NCC(N)=O)NC(=O)[C@H](CC(C)C)NC(=O)[C@H](Cc2cnc[nH]2)NC(=O)[C@H](C(C)C)NC(=O)[C@@H]2CCCN2C1=O (stereo partly shown) [Example 317] ({CH2CO}-[Cha][Bip][X79][Sar]HD[dR]IPVHLCG-NH2; thioether N-13)
